In PubChem BioAssay (NCI) one finds TGI data, which are given here for 20 compounds.

Common to all, as to test: NCI anticancer screen, dose series, 48 h
Assay [1] concerns OVCAR-4 ovarian.
The subject of assay [2] is NCI-H23 lung.
Assay [3] concerns NCI/ADR-RES ovarian.
The test system of assay [4] is OVCAR-8 ovarian.
In assay [5] the test system is NCI-H460 lung.
The subject of assay [6] is MDA-MB-435.
The subject of assay [7] is K-562 leukemia.
The test system of assay [8] is SF-268 CNS.
The subject of assay [9] is U251 CNS.
Assay [10] has as its system SW-620 colon.
In assay [11] the test system is COLO 205 colon.
Assay [12] relates to HCT-15 colon.
Assay [13] deals with M14 melanoma.

Molecules are shown by their SMILES.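 Each compound was tested at five concentrations against cells in 96-well plates for 48 hours. TGI: total growth inhibition.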 Bounds are passed on as bounds.

As for `O=C1OCC2OC(=O)c3cc(O)c(O)c(O)c3-c3c(O)c(O)c(O)c4c3C(=O)OC(C2OC(=O)c2cc(O)c(O)c(O)c2-c2c1cc(O)c(O)c2O)C1OC(=O)C2C4=C(O)C(=O)C23Oc2cc(O)c4c(c2[C@H]13)O[C@H](c1ccc(O)c(O)c1)[C@@H](O)C4` (stereo not given in full), the TGI in assay [1] was 43.5 µM; in assay [2], 47.3 µM; in [3] it was 73.3 µM; in assay [4], 58.5 µM; in assay [5], above 100 µM; in [6] it was 45 µM. Moreover, the TGI was found to be 72.3 µM in assay [7]; 50.7 µM in assay [8]; 42.7 µM in assay [9]; 53.5 µM in [10]; 54.9 µM in [11]; 44.7 µM in assay [12]. In [13], the TGI came out at 29.6 µM.
In the case of `O=P1(Cc2ccccc2)N(Cc2ccccc2)[C@@H]2CCCC[C@H]2N1Cc1ccccc1`, the TGI in [1] came to 15.2 µM; in [2] it was 23.2 µM; in [3], 23 µM; in assay [4], 23.8 µM; in assay [5] it was 25.8 µM; in assay [6] it was 19.8 µM. Besides, the TGI turned out to be 19.2 µM in assay [7]; 24.3 µM in assay [8]; 25.5 µM in assay [9]; 30.1 µM in assay [10]; 18.7 µM in assay [11]; 23.8 µM in assay [12]. In assay [13], this compound came in with a TGI of 16.6 µM.
For `O=c1[nH]nc(Cc2ccc(Cl)cc2)n1/N=C/c1cccs1`, the TGI in assay [1], in assay [2], in assay [3], in assay [4], in [5] and in [6] was above 100 µM each time. The TGI in assay [7] was above 100 µM; in assay [8], 42.9 µM; in assay [9] it was above 100 µM; in [10], above 100 µM; in assay [11], above 100 µM; in assay [12], above 100 µM. The TGI in assay [13] was above 100 µM.
Take `CC(=O)O[C@@]12CO[C@@H]1CC(O)[C@@]1(C)C(=O)[C@H](O)C3=C(C)C(O)C[C@@](O)(C(OC(=O)c4ccccc4)C12)C3(C)C` (stereo not given in full): the TGI in assay [1] is above 100 µM; in [2], above 41.9 µM; in assay [3] it was above 100 µM; in [4], above 74.9 µM; in assay [5], above 100 µM; in assay [6], 0.413 µM. The TGI in [7] was above 100 µM; in assay [8], above 100 µM; in assay [9] it was 18.1 µM; in assay [10], above 100 µM; in assay [11], 6.72 µM; in assay [12] it was above 100 µM. The compound further showed a TGI in assay [13] above 48.5 µM.
Turning to `OC(C/C=N/N=C/CC(O)(C(F)(F)Cl)C(F)(F)Cl)(C(F)(F)Cl)C(F)(F)Cl`, the TGI in [1], in [2], in assay [3], in assay [4], in assay [5] and in [6] was above 10 µM in each case. Besides, the TGI in [7], in assay [8], in assay [9], in assay [10], in [11] and in assay [12] was above 10 µM in each case. In assay [13], this compound came in with a TGI above 10 µM.
In the case of `CN1CCCOC(c2ccc(Cl)cc2)O1` (stereo not given), the TGI in assay [1], in [2], in assay [3], in assay [4], in [5] and in assay [6] was above 100 µM throughout. In addition, the TGI in assay [7], in assay [8], in assay [9], in assay [10], in assay [11] and in [12] was above 100 µM each time. Besides, in assay [13], the TGI is above 100 µM.
For `CCOC(=O)CCC1(CCC(=O)OCC)CCCCCCCCC(CCC(=O)OCC)(CCC(=O)OCC)C(=O)C1=O`, the TGI in assay [1], in assay [2], in assay [3], in assay [4], in assay [5] and in assay [6] was above 100 µM each time. In addition, the TGI in assay [7], in assay [8], in assay [9], in [10], in assay [11] and in assay [12] was above 100 µM in each case. The compound also returned a TGI in assay [13] above 100 µM.
As for `CCOC(=O)C(Cc1ccc(O)cc1)Nc1nc(=O)c2c(=O)oc(Cl)cc2o1` (stereo not given), the TGI in assay [1] is 25.9 µM; in assay [2], 40.5 µM; in assay [3] it was above 69.7 µM; in assay [4], 14 µM; in assay [5], above 57.2 µM; in assay [6] it was 20.4 µM. The TGI in [7] stood at 31.6 µM; in [8], 17.3 µM; in assay [9], 21.9 µM; in [10] it was 15.2 µM; in [11], 37.9 µM; in assay [12], 37.3 µM. Besides, in assay [13], the TGI is 15.1 µM.
For `O=C1/C(=C\c2cccc(Oc3ccccc3)c2)S(=O)(=O)C(c2ccccc2)N1c1cccc(Cl)c1` (stereo not given), the TGI in assay [1] was above 100 µM; in assay [2], above 100 µM; in [3], above 100 µM; in assay [4], 69.4 µM; in assay [5], above 100 µM; in assay [6] it was above 100 µM. The TGI was above 100 µM in [7]; above 100 µM in assay [8]; above 100 µM in [9]; 69 µM in assay [10]; above 100 µM in assay [11]; above 100 µM in [12]. Besides, the TGI in [13] is above 100 µM.
For `O=C1CC(=O)NC(=NN2C(=O)/C(=C/c3ccc(Cl)c(Cl)c3)N=C2c2ccccc2)N1`, the TGI is above 100 µM in assay [1]; above 100 µM in assay [2]; 54.2 µM in assay [3]; 94.9 µM in assay [4]; 74.9 µM in assay [5]; above 100 µM in assay [6]. For the same compound, the TGI in assay [7] is 32.5 µM; in assay [8] it was above 100 µM; in [9] it was 90.4 µM; in assay [10], above 100 µM; in assay [11], 34.1 µM; in assay [12], above 100 µM. The same compound displayed a TGI in assay [13] of 83.5 µM.
Turning to `Cc1[nH]n(-c2nc(O)c(-c3ccccc3)c(=O)[nH]2)c(=O)c1CCO`, the TGI in assay [1], in [2], in [3], in assay [4], in [5] and in [6] was above 100 µM throughout. In addition, the TGI in assay [7], in assay [8], in assay [9], in assay [10], in assay [11] and in assay [12] was above 100 µM throughout. Moreover, the TGI in assay [13] is above 100 µM.
`COc1cc2c(cc1O)NC(=O)[C@@H]1CCCN1C2=O`: the TGI in [1], in assay [2], in [3], in [4], in assay [5] and in assay [6] was above 100 µM each time. In addition, the TGI in assay [7], in [8], in assay [9], in [10], in assay [11] and in assay [12] was above 100 µM in each case. In assay [13], this compound yielded a TGI above 100 µM.
`COCCn1cnc2c(Cl)nc(Nc3ccccc3)nc21`: the TGI in assay [1] was 46.7 µM; in assay [2], above 100 µM; in [3] it was above 100 µM; in assay [4], 54.9 µM; in [5], above 100 µM; in assay [6] it was 40.7 µM. In addition, the TGI in assay [7] was above 100 µM; in [8], above 100 µM; in assay [9] it was above 100 µM; in assay [10], above 100 µM; in [11], above 100 µM; in assay [12], 69.1 µM. Also, the TGI in [13] came out at 60.8 µM.
For `CC(=O)SC(C[N+](=O)[O-])c1ccc2c(c1)OCO2` (stereo not given), the TGI in assay [1] was found to be 23.1 µM; in assay [2] it was 34.6 µM; in [3], 35.5 µM; in assay [4], 28.1 µM; in [5], 26.2 µM; in assay [6] it was 17.6 µM. For the same compound, the TGI is above 28.7 µM in [7]; above 82.5 µM in assay [8]; 13 µM in assay [9]; 11.9 µM in assay [10]; 36.9 µM in [11]; 11.1 µM in assay [12]. The compound also returned a TGI in [13] of 15.6 µM.
`CC(=O)Nc1c(C(=N)C#N)ncn1CCO`: the TGI in [1], in [2], in [3], in [4], in [5] and in assay [6] was above 100 µM in each case. The TGI in [7], in assay [8], in [9], in assay [10], in [11] and in assay [12] was above 100 µM each time. The compound further showed a TGI in assay [13] above 100 µM.
In the case of `COc1cccc(CC(=O)N2CCN(CCCc3ccccc3)CC2)c1`, the TGI in [1] was above 100 µM; in assay [2], above 100 µM; in [3], 94.3 µM; in assay [4], above 100 µM; in assay [5], above 100 µM; in [6] it was above 100 µM. The TGI in assay [7], in [8], in [9], in assay [10], in assay [11] and in assay [12] was above 100 µM throughout. The TGI in assay [13] was above 100 µM.
With `Cc1ccc(C(=O)NCc2ccccc2)cc1N=NN(C)C`, the TGI in assay [1], in [2], in assay [3], in assay [4], in assay [5] and in assay [6] was above 100 µM each time. In addition, the TGI in assay [7], in assay [8], in [9], in assay [10], in assay [11] and in assay [12] was above 100 µM throughout. The compound further showed a TGI in assay [13] above 100 µM.
On to `O=C1CCSCCC(=O)Nc2ccccc2N1`, for which the TGI in [1], in assay [2], in [3], in assay [4], in assay [5] and in assay [6] was above 100 µM each time. Besides, the TGI in assay [7], in [8], in assay [9], in [10], in [11] and in [12] was above 100 µM in each case. Besides, the TGI in assay [13] is above 100 µM.
For `COC(=O)[C@@H](NC(=O)N(Cc1ccccc1)C[C@H](CC(C)C)NC(=O)[C@@H](NC(=O)OC(C)(C)C)C(C)C)C(C)C`, the TGI in [1], in [2], in assay [3], in assay [4], in [5] and in [6] was above 100 µM in each case. Besides, the TGI in [7], in assay [8], in assay [9], in assay [10], in [11] and in assay [12] was above 100 µM in each case. The TGI in assay [13] was above 100 µM.
For `O=C1C(Br)=CC2(C=C1Br)CCNC1=C2C(=O)c2ncccc2C1=O`, the TGI in [1] worked out at 2.48 µM; in assay [2], 1.65 µM; in [3] it was 6.17 µM; in [4], 4.5 µM; in assay [5] it was 1.46 µM; in assay [6], 0.354 µM. The TGI in [7] was found to be 0.516 µM; in assay [8], 4.99 µM; in assay [9], 5.6 µM; in [10], 2.73 µM; in [11] it was 3.6 µM; in [12] it was 2.64 µM. In addition, the TGI in assay [13] came to 3.01 µM.
